We go through eleven compounds from PubChem BioAssay (NCI).

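Briefly, cells in 96-well plates were exposed to five compound concentrations for 48 h, and endpoints were estimated by linear interpolation. TGI: concentration producing complete growth inhibition.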

Common to all, as to experiment: NCI anticancer screen, dose series, 48 h
Assay [1] deals with MDA-MB-435.
Assay [2] relates to NCI-H23 lung.
In assay [3] the test system is CCRF-CEM leukemia.
The subject of assay [4] is SF-539 CNS.
Assay [5] has as its system SK-OV-3 ovarian.
Assay [6] concerns MALME-3M melanoma.
Assay [7] deals with HS 578T breast.
In assay [8] the test system is PC-3 prostate.
Assay [9] has as its system M14 melanoma.
In assay [10] the test system is NCI-H226 lung.

For `COc1cc2c(cc1OCCCCCOc1cc3c(cc1OC)C(=O)N1CCC[C@H]1CN3)N=C[C@@H]1CCCN1C2=O`, the TGI is 20.1 µM in assay [1]; 20.5 µM in [2]; 0.592 µM in [3]; 20.4 µM in [4]; greater than 100 µM in assay [5]; 21.6 µM in assay [6]. In addition, the TGI amounted to 50.4 µM in [7], 61.5 µM in assay [8], 10.8 µM in assay [9] and 29.1 µM in [10].

As to `C=C1c2nc3ccccc3n2C=C(c2ccc(OC)cc2)N1c1ccc(OCCN2CCOCC2)cc1`, the TGI in assay [1] is greater than 100 µM; in [2], greater than 100 µM; in assay [3], greater than 86.9 µM; in assay [4] it was greater than 100 µM; in assay [5], greater than 100 µM; in assay [6], 27.6 µM. Besides, the TGI is greater than 40 µM in [7], greater than 100 µM in assay [8], greater than 55.4 µM in [9] and greater than 100 µM in assay [10].

With `CCOP(=O)(OCC)C(C)(C)OC(=O)NC#N`, the TGI in [1], in [2], in assay [3], in assay [4], in assay [5] and in [6] was greater than 100 µM in each case. The TGI in assay [7], in [8], in assay [9] and in assay [10] was greater than 100 µM throughout.

Consider `CC(=O)N(CN1C(=O)CCC1C(=O)O)c1ccccc1Cl` (stereo not given), for which the TGI in assay [1], in assay [2], in [3], in assay [4], in assay [5] and in assay [6] was greater than 100 µM each time. For the same compound, the TGI in [7], in assay [8], in [9] and in [10] was greater than 100 µM throughout.

As to `Cc1nc2c(=O)[nH]c3ccc(Cl)cc3c2o1`, the TGI in assay [1], in [2], in assay [3], in assay [4], in [5] and in assay [6] was greater than 100 µM in each case. Also, the TGI in assay [7], in assay [8], in assay [9] and in assay [10] was greater than 100 µM each time.

For `CN1B(c2ccccc2)N(C)C(=O)N(C)C1=O`, the TGI in [1], in assay [2], in [3], in assay [4], in assay [5] and in assay [6] was greater than 100 µM throughout. For the same compound, the TGI in [7], in assay [8], in [9] and in assay [10] was greater than 100 µM each time.

Regarding `CC(C)c1cccc(C(C)C)c1OS(=O)(=O)NC(=O)OC(C(F)(F)F)C(F)(F)F`, the TGI in [1], in assay [2], in assay [3], in assay [4], in assay [5] and in assay [6] was greater than 100 µM in each case. For the same compound, the TGI in [7] was greater than 100 µM; in assay [8], greater than 100 µM; in assay [9], 64 µM; in assay [10], greater than 100 µM.

On to `O=S(=O)(/N=C(\NO)Nc1ccc(Cl)cc1)c1ccc(-c2ccccn2)s1`, for which the TGI is greater than 100 µM in assay [1]; greater than 100 µM in [2]; greater than 100 µM in assay [3]; greater than 100 µM in assay [4]; greater than 100 µM in assay [5]; 96.8 µM in assay [6]. Further, the TGI in [7], in assay [8], in assay [9] and in assay [10] was greater than 100 µM in each case.

For `CCOP(=O)(OCC)C(Nc1ccc(F)cc1)c1ccccc1` (stereo not given), the TGI in assay [1], in [2], in assay [3], in assay [4], in [5] and in assay [6] was greater than 100 µM in each case. The TGI in assay [7], in assay [8], in assay [9] and in assay [10] was greater than 100 µM in each case.

As to `C=CC1(c2ccc(OC)cc2)OCCCO1`, the TGI in assay [1], in assay [2], in assay [3], in assay [4], in [5] and in assay [6] was greater than 100 µM throughout. The TGI in assay [7], in [8], in assay [9] and in [10] was greater than 100 µM each time.

In the case of `OC(CN1CCCCC1)c1ccc(/C=C/c2ccc(Cl)cc2)cc1` (stereo not given), the TGI in [1], in assay [2], in [3], in assay [4], in assay [5] and in [6] was greater than 100 µM throughout. For the same compound, the TGI is greater than 100 µM in assay [7], greater than 100 µM in assay [8], 41.9 µM in assay [9] and greater than 100 µM in assay [10].
